Data from US10329542B2, “HBV RNAse H purification and enzyme inhibitors” (Saint Louis University, priority 2012, dated 2019).

What was measured:
[1] = system: HBV; assay: Quantitative PCR screen of HBV plus-polarity DNA accumulation; type: cell-based, Hepatitis B virus; conditions: 60, 20, or 6.7 μM; DNA isolated day 3
Experimental: This assay was employed to screen 7 compounds for their ability to suppress HBV replication (FIG. 17). […] Fresh medium containing compound was provided on days 1 and 2, and capsid-associated HBV DNAs were isolated on day 3. HBV plus-strand DNAs were measured using the cross-gap TaqMan PCR assay.
Plus-polarity preferential quantitative TaqMan PCR for the HBV DNA was conducted employing forward primer […] […] PCR was conducted on purified HBV capsid-derived nucleic acids for 40 cycles of 95° C. for 15 sec. and 65° C. for 1 min. employing the TaqMan universal PCR master mix (Applied Biosystems). Results were standardized against serial dilutions of cloned HBV DNA. The EC50 was estimated by linear regression of the real-time PCR data.

[2] = biological target: HIV-1 RNAseH (Human immunodeficiency virus type 1 group M subtype B, UniProt P04585); conditions: read-out: IC50 against the HIV RNAseH; cited from earlier work
[3] = system: Huh7 cells; assay: CytoTox-Glo membrane integrity assay in Huh7 cells; type: cell-based, human; conditions: four days
Experimental: (§1) Toxicity of βTJ in Huh7 cells was determined with 3-(4,5-dimethylthiazol-2-yl)-5-β-carboxymethoxyphenyl)-2-(4-sulfophenyl)-2H-tetrazolium (MTS) assays that measures mitochondrial dysfunction employing the Cell Titre 96 aqueous nonradioactive cell proliferation assay (Promega), and with the CytoTox-Glo assay (Promega) that reflects cellular integrity. Huh7 and HepG2 cells (1×10^4) were plated in 96-well tissue culture plates, medium containing βTJ at the indicated concentrations was added the next day, the medium was replaced with fresh medium containing βTJ after two days, and after four days the MTS or CytoTox-Glo assays were conducted according to the manufacturer's instructions.

[4] = system: Huh7 cells; assay: MTS cytotoxicity assay in Huh7 cells; type: cell-based, human
Experimental: as §1

[5] = system: CEM-SS cells; conditions: cited from earlier work
[6] = system: HepG2 cells; assay: MTS cytotoxicity assay in HepG2 cells; type: cell-based, human; conditions: four days
Experimental: as §1

[7] = system: HIV; conditions: cited from earlier work
[8] = biological target: HCV RNA-directed RNA polymerase (Hepatitis C virus genotype 1a, UniProt P27958); assay: Primed homopolymeric RNA (poly-G) synthesis assay; type: biochemical; conditions: 10 μM
Sequence of HCV RNA-directed RNA polymerase (P27958 2421-3011): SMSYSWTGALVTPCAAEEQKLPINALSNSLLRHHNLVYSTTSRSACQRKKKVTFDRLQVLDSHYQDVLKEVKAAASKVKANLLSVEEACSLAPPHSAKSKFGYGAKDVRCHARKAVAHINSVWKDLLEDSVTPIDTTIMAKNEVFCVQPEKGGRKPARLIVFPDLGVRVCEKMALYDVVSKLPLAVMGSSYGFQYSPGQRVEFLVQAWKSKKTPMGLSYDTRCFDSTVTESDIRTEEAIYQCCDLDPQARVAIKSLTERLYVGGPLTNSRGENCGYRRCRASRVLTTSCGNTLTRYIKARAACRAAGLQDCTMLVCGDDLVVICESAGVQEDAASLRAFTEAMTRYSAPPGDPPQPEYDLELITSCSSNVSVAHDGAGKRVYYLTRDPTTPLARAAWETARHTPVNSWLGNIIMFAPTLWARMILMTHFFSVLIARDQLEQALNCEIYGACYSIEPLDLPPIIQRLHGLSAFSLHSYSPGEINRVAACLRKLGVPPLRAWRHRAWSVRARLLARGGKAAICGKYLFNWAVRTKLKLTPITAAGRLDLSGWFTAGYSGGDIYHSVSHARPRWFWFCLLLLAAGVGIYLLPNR
Experimental: FIGS. 9A-C. Specificity of anti-HBV RNAseH compounds. (FIG. 9A) Inhibition of HBV genotype D RNAseH by irrelevant compounds at 10 μM in the oligonucleotide-directed RNAseH assay. Compound #4 was employed as an example HBV RNAseH inhibitor. […] The ability of compounds #5, 6 and 8 to inhibit production of poly-G by the HCV RNA-directed RNA polymerase was measured in a primed homopolymeric RNA synthesis assay (Cao, et al., 2011. The compounds were employed at 10 μM. DMSO, vehicle control. (FIG. 9C) Dose-responsiveness of HBV RNAseH inhibition. The effects of compounds #6, 8, and 12 on the RNAseH activity of HRHPL (genotype D) were measured at concentrations ranging from 0.5 to 50 μM. The dose-response profile is plotted for compound #12.

[9] = biological target: T1, chimeric HBV:HIV RNAseH HHC1 (Hepatitis B virus genotype D subtype ayw, UniProt P03156, DELINS787-795VNQIIEQLIVK/INS679M); assay: Oligonucleotide-directed RNAseH cleavage assay, chimeric HHC1; type: biochemical; conditions: read-out: Residual activity at 10 uM, HHC1
T1 construct: HHC1 is an HRHPL derivative; made in house; host or cells: E. coli BL21 codon+
T1 sequence (P03156 680-786, added parts left off, stated change not applied): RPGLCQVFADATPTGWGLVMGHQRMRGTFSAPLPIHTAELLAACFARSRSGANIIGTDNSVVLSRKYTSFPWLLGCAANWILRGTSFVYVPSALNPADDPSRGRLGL
In short: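 Bacterially expressed C-terminal His-tagged HHC1 (HRHPL, HBV genotype D pol 684-845, with residues 800-808 swapped for HIV RNAseH helix D) extract mixed with internally 32P-labeled DRF+ RNA and oligonucleotide D2507- (D2526+ negative control), 42 °C, 90 min. Products resolved by 12% SDS-PAGE, autoradiographed and quantified; compounds added in DMSO, DMSO vehicle control.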

## CC(C)c1ccc(O)c(=O)c(O)c1 [Compound 46, beta-thujaplicinol]
[1]
  Suppression of HBV plus-polarity DNA accumulation: suppressed viral replication to background
[2]
  IC50: 0.2 to 0.3 µM
[3]
  CC50: > 150 µM
[4]; four days
  CC50: 10.1 ± 1.7 µM
[5]
  CC50: 2.3 µM
[6]
  CC50: 16.7 ± 3.7 µM
[7]
  Activity against HIV replication in cells: inactive

## Cc1c2cc(O)c(=O)cc-2oc2cc(O)c(O)cc12 [Compound 8]
[8]
  Inhibition of poly-G production by HCV RNA polymerase: do not significantly inhibit

## NCc1ccc(-c2ccc(Cc3cc(=O)n(O)c4ncccc34)cc2)cc1 [Compound 12, napthyridinone]
[4]
  Estimated CC50, MTS assay, Huh7 cells: low μM range

## CCOc1ccc(-c2c3cc(O)c(=O)cc-3oc3cc(O)c(O)cc23)cc1 [Compound 30]
[1]
  Suppression of HBV plus-polarity DNA accumulation: inhibited accumulation of HBV plus-polarity DNA to lesser extents

## COc1cc2c(cc1Cc1cccc(Cl)c1F)c(=O)c(C(=O)O)cn2[C@H](CO)C(C)C [Compound 10, Elvitegravir, reference compound]
[9]
  remaining activity at 10 µM: 35 ± 7%

## Cc1nnc(C(=O)NC(C)(C)c2nc(C(=O)NCc3ccc(F)cc3)c(O)c(=O)n2C)o1 [Compound 11, Raltegravir, reference compound]
[9]
  remaining activity at 10 µM: 59 ± 23%
